Laboratory results reported in US9700638B2, “Near infrared label and methods of use thereof” (priority 2013, dated 2017).
Like-named read-outs stand apart in the source and are kept apart here.

Legend:
[1] = reference chromophores with known molar absorptivity; cited from earlier work
[2] = Light absorption / molar absorptivity of DDAO and 7-aminoDDAO derivatives; type: physicochemical; conditions: for light absorption maximum: FIG. 4, 50% MeOH
Procedure: (§1) The molar extinction of 7-aminoDDAO (55 000 M-1 cm-1) was determined by the attachment of reference chromophores with known molar absorptivity (Table 1). Light absorption spectra of the labeled caspofungin and posaconazole derivatives were close to superposition of those for the 7-(4-aminobutyl)amino-DDAO and the corresponding drugs, which is illustrated in FIG. 4 on the example of posaconazole derivative. […] Thus, excitation and emission maxima for DDAO were 653 nm and 660 nm correspondingly, while for 7-(4-aminobutyl)amino-DDAO they shifted to 671 nm and 679 nm correspondingly. […] Remarkably, the shape of the excitation spectrum curve for ionized form of DDAO was the same in 50% and 100% methanol.

[3] = Fluorescence spectra, relative brightness and quantum yield in various solvents; type: physicochemical; parameters: brightness: unit not given here; conditions: for QY (50% MeOH), quantum yield / RB (50% MeOH), relative brightness / QY (MeOH), quantum yield / RB (MeOH), relative brightness / QY (H20), quantum yield / RB (H2O), relative brightness: 1 μM; for increase of light emission in 50% methanol compared to water: 50% methanol vs water; for QY (H20), quantum yield / RB (H2O), relative brightness: H2O; for increase of emission in 100% methanol compared to 50% methanol: 100% methanol vs 50% methanol
Procedure: as §1
However, posaconazole derivative behaved differently. […] The suppression of the fluorophore light emission in posaconazole derivative is likely due to the presence of extended light-absorbing moiety that can stack to the fluorophore, causing contact quenching (FIG. 7). […] in fluorescence is expected upon interaction of the labeled drug with its cellular target, whereby stacking interactions of the fluorophore with the drug moiety have to be destroyed (FIG. 7B). This beneficial “signaling” effect is expected to greatly increase the contrast of imaging by minimizing the background signal of non-bound compound, which remains “dark”.
Table 2 illustrates light emission properties of DDAO-based diagnostic probes and reference compounds, and presents the data on quantum yield and brightness for 7-aminoDDAO compound at various conditions. These parameters were determined using a reference fluorophore Cy5.5, (which has the excitation and emission maxima nearly identical to those for 7-aminoDDAO) and published data for original DDAO fluorophore. […] This was perhaps due to higher light absorptivity and higher quantum yield of the amino-derivative. The difference in brightness further increased in 50% methanol (21 000 and 9000 correspondingly).

[4] = Chemical and photochemical stability of the fluorophore; type: physicochemical
Candida albicans = test: Imaging of fungal infection in mice kidneys by whole-body fluorescence imaging; type: in vivo
Procedure: Mice were infected via intravenous inoculation with 5*10^5 CFU of wild type Candida albicans and an infection that occurs most prominently in the kidneys. After 48 hours post infection, a fixed concentration of 0.12 ug/mL of CSF-DDAO is added via tail vein injection at 0, 2, 4 and 8 hours to assess the optimal time for visualization of the infection. At each time point, the mice were imaged in a non-invasive whole-body animal imaging system to detect fluorescence energy. Animals infected with Candida albicans show proliferation of the fungal infection in the kidneys after 48 hours. […] Maximum labeling occurred at 8 hours. […] At the same time no signal was detected in uninfected and/or untreated organs.

[5] = listed as 7-(4-aminobutyl)amino-DDAO

| Compound | Molar absorption for attached compounds [1] | molar absorbance [2] | ε [2] | light absorption maximum [2] [nm] | brightness [3] | pH dependence of the fluorophore [3] | QY (50% MeOH), quantum yield [3] | RB (50% MeOH), relative brightness [3] | increase of light emission in 50% methanol compared to water [3] | QY (MeOH), quantum yield ([3]; 100% MeOH) | RB (MeOH), relative brightness ([3]; 100% MeOH) | QY (H20), quantum yield [3] | RB (H2O), relative brightness [3] | increase of emission in 100% methanol compared to 50% methanol [3] [fold] | further results |
| --- | --- | --- | --- | --- | --- | --- | --- | --- | --- | --- | --- | --- | --- | --- | --- |
| Cc1cc(C)n2c1C=C1C=CC(CCC(=O)O)=[N+]1[B-]2(F)F [BODIPY-FL] | 82,000 M^−1cm^−1 |  |  |  |  |  |  |  |  |  |  |  |  |  |  |
| CC1(C)C2=C(Cl)C(=O)C(Cl)=CC2=Nc2ccc(NCCCCN)cc21 [DDAO NH2, DDAO—NH—(CH2)4—NH2] |  | 53,000 | 53,000 M^−1cm^−1 | 673 | 6,000 | pH-independent | 0.40 | 21,000 | ca. 2.5 fold | 0.25 | 13,000 | 0.19 | 10,000 |  | Calculated molar absorption for DDAO residue ([2]; attached compound BODIPY-FL): 70,000 M^−1cm^−1; Calculated molar absorption for DDAO residue ([2]; attached compound DNP): 32,000 M^−1cm^−1; Calculated molar absorption for DDAO residue ([2]; attached compound Posaconazole): 59,000 M^−1cm^−1; Calculated molar absorption for DDAO residue, Average ([2]; average over three attached chromophores): 53,000 M^−1cm^−1; molar extinction ([2]; determined by attachment of reference chromophores): 55 000 M-1 cm-1; long-wavelength emission range [3]: 640-700 nm; RB (50% MeOH), relative brightness ([3]; listed as 7-aminoDDAO): 21 000; emission maximum in 100% MeOH ([3]; 100% MeOH): 670 nm; excitation maximum in 100% MeOH ([3]; 100% MeOH): 620 nm; drop of light emission intensity in 100% MeOH ([3]; 100% MeOH vs 50% methanol): 1.7 fold; RB (MeOH), relative brightness ([3]; 100% MeOH, listed as 7-aminoDDAO): 13 000; RB (H2O), relative brightness ([3]; listed as 7-aminoDDAO): 10 000; emission maximum [3, 5]: 679 nm; excitation maximum [3, 5]: 671 nm; emission maximum ([3]; listed as 7-aminoDDAO): 680 nm; emission maximum ([3]; listed as 7-aminoDDAP): 680 nm; excitation maximum ([3]; listed as 7-aminoDDAP): 670 nm; chemical and photochemical stability [4]: chemically and photochemically stable |
| CC1(C)C2=C(Cl)C(=O)C(Cl)=CC2=Nc2ccc(O)cc21 [DDAO, 7-hydroxy-9H-(1,3-dichloro-9,9-dimethylacridin-2-one), reference compound] |  | 48,000 | 48,000 M^−1cm^−1 | 653 | 3,600 | pH-dependent | 0.19 | 9000 |  | 0.25 | 12 000 | 0.125 | 6 000 | 1.3 | emission maximum [3]: 660 nm; excitation maximum [3]: 653 nm; RB (50% MeOH), relative brightness ([3]; listed as DDAO (pH 9.0)): 9,000; RB (MeOH), relative brightness ([3]; 100% MeOH, listed as DDAO (pH 9.0)): 12,000; RB (H2O), relative brightness ([3]; listed as DDAO (pH 9.0)): 6,000 |
| CC[C@@H]([C@H](C)O)n1ncn(-c2ccc(N3CCN(c4ccc(OC[C@@H]5CO[C@@](Cn6cncn6)(c6ccc(F)cc6F)C5)cc4)CC3)cc2)c1=O [Posaconazole] | 34,000 M^−1cm^−1 |  |  |  |  |  |  |  |  |  |  |  |  |  |  |
| DDAO—NH—(CH2)4—NCS-Caspofungin [DDAO Casp] |  |  | 53,000 M^−1cm^−1 |  |  |  | 0.26 | 13,800 | 2 fold | 0.42 | 22,000 | 0.11 | 6,000 | 1.3 | fluorescent signal of the infected organ (kidney) (Candida albicans; C. albicans infected mice kidney, FIG. 8): bright fluorescent signal; labeling of cells in the target organs over time (Candida albicans; infected mice, whole body imaging at 0, 2, 4 and 8 hours): progressive labeling of cells in the target organs over time; time of maximum labeling after probe injection (Candida albicans; mice 48 h post i.v. infection with C. albicans, 0.12 ug/mL via tail vein, whole body imaging): 8 h; accumulation in the kidneys in the absence of infection (Candida albicans; uninfected mice): did not accumulate in the kidneys |
